Experimental data as given in patent publication US6992089B2, “Nitro and amino substituted topoisomerase agents” (Rutgers, The University of New Jersey, priority 2002, dated 2006).
Where two headings read alike, the source gives them in different places.

Assays:
P388/CPT45 = test: MTT cytotoxicity assay, P388/CPT45; format: cell-based; settings: Mus musculus, P388CPT45, 96 h, read-out: Cytotoxicity IC50 P388/CPT45
Protocol: (§1) The cytotoxicity was determined using the MTT-microtiter plate tetrazolinium cytotoxicity assay (MTA—See Mosmann, T., J. Immunol. Methods 1983, 65, 55-63; Carmichael, J., et al., Cancer Res. 1987, 47, 936-942; and Denizot, F., et al., J. Immunol. Methods 1986, 89, 271-277). […] The cytotoxicity assay was performed using 96-well microtiter plates. Cells were grown in suspension at 37° C. in 5% CO2 and maintained by regular passage in RPMI medium supplemented with 10% heat-inactivated fetal bovine serum, L-glutamine (2 mM), penicillin (100 U/mL), and streptomycin (0.1 mg/mL). […] For determination of IC50, cells were exposed continuously for 4 days to varying concentrations of drug, and MTT assays were performed at the end of the fourth day. […] All assays were performed at least twice in 6 replicate wells.

P388 = test: MTT cytotoxicity assay, P388; format: cell-based; settings: Mus musculus, P388, 96 h, read-out: Cytotoxicity IC50 P388
Protocol: as §1

RPMI 8402 = test: Test B: MTT-microtiter plate tetrazolinium cytotoxicity assay, RPMI 8402; format: cell-based; settings: Homo sapiens, RPMI 8402, 96 h, read-out: Cytotoxicity IC50 RPMI 8402
Protocol: as §1

CPT-K5 = test: Test B: MTT-microtiter plate tetrazolinium cytotoxicity assay, CPT-K5 (camptothecin-resistant variant); format: cell-based; settings: Homo sapiens, CPT-K5, 96 h, read-out: Cytotoxicity IC50 CPT-K5
Protocol: as §1

human topoisomerase I = biological target: T1, human topoisomerase I (Homo sapiens, UniProt P11387); test: Test A: topoisomerase I-mediated DNA cleavage assay; format: biochemical; settings: concentration relative to topotecan (=1) producing the same cleavage on plasmid DNA in presence of human TOP1
T1 construct: unnamed fusion partner (recombinant fusion protein, T7 expression system); made in house; host or cells: E. coli
T1 sequence (P11387 1-765): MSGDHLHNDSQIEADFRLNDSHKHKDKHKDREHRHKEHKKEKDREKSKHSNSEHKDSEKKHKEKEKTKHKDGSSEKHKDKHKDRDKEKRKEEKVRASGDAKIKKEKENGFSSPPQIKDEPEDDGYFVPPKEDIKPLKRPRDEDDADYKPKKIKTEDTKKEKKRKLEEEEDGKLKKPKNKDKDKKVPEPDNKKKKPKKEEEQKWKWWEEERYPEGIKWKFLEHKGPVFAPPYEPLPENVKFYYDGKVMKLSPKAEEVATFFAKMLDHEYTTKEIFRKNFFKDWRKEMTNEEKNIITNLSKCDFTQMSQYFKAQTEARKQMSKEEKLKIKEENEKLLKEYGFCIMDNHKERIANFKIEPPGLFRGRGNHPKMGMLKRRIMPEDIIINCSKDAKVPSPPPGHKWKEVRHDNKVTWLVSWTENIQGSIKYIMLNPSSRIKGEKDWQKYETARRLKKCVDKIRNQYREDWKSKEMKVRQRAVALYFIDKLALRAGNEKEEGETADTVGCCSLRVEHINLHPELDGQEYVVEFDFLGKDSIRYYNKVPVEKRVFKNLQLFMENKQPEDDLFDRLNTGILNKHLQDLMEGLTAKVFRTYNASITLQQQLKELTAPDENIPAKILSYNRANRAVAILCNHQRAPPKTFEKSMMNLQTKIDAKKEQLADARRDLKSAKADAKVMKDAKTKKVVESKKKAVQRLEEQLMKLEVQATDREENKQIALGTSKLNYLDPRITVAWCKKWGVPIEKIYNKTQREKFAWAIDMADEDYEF
Excerpt: Test A. Topoisomerase-Mediated DNA Cleavage Assays
Human topoisomerase I was expressed in E. Coli and isolated as a recombinant fusion protein using a T7 expression system as described by Gatto, B., et al., Cancer Res. 1996, 56, 2795-2800. Plasmid YepG was purified by the alkali lysis method followed by phenol deproteination and CsCl/ethidium isopycnic centrifugation method as described by Maniatis, T., et al., J. Molecular Cloning, a Laboratory Manual; Cold Spring Harbor Laboratory: Cold Spring Harbor, N.Y. 1982; pp 149-185. The end-labeling of the plasmid was accomplished by digestion with a restriction enzyme followed by end-filling with Klenow polymerase as previously described by Tewey, K. M., et al., Science 1984, 226, 466-468. The cleavage assays were performed as previously reported (see Gatto, B., et al., Cancer Res. 1996, 56, 2795-2800; and Wang, H., et al., Biochemistry 2001, 40; 3316-3323). The drug and the DNA in presence of topoisomerase I was incubated for 30 minutes at 37° C. The reactions were terminated by the addition of 5 μl of 5% SDS and 1 mg/ml […] with an additional 1 hour of incubation at 37° C. Samples were then alkali denatured by the addition of NaOH, EDTA, sucrose, and bromophenol blue to final concentrations of 75 mM, 2.5%, and 0.05 mg/ml, respectively, prior to loading onto a neutral agarose gel. After development of the gels, typically 24-hour exposure was used to obtain autoradiograms outlining the extent of DNA fragmentation.

SMILES | melting point | TOP1-mediated DNA Cleavage (REC, relative effective concentration) (human topoisomerase I) | IC50 (P388/CPT45) | IC50 (P388; 4 days of continuous drug exposure) | IC50 (RPMI 8402; 4 days of continuous drug exposure, MTT) | IC50 (CPT-K5) | IC50 (P388) | IC50 (RPMI 8402)
CC[C@@]1(O)C(=O)OCc2c1cc1n(c2=O)Cc2cc3ccccc3nc2-1 [CPT, Camptothecin, reference compound] | – | – | > 10000 nM | 9 nM | 5 nM | – | – | –
COc1cc2c(=O)n(CCN(C)C)c3c4cccc([N+](=O)[O-])c4ncc3c2cc1OC [Compound 3a, 8,9-Dimethoxy-1-nitro-5-[2-(N,N-dimethylamino)ethyl]-5H-dibenzo[c,h][1,6]naphthyridin-6-one] | 257 to 258 °C | 9 | 2100 nM | – | – | 3000 nM | 190 nM | 220 nM
COc1cc2c(=O)n(CCN(C)C)c3c4ccc([N+](=O)[O-])cc4ncc3c2cc1OC [Compound 3b, 8,9-Dimethoxy-2-nitro-5-[2-(N,N-dimethylamino)ethyl]-5H-dibenzo[c,h][1,6]naphthyridin-6-one] | 214 to 217 °C | 6 | 340 nM | – | – | 3350 nM | 30 nM | 75 nM
COc1cc2c(=O)n(CCN(C)C)c3c4cc([N+](=O)[O-])ccc4ncc3c2cc1OC [Compound 3c, 8,9-Dimethoxy-3-nitro-5-[2-(N,N-dimethylamino)ethyl]-5H-dibenzo[c,h][1,6]naphthyridin-6-one] | 232 to 234 °C | 2 | 200 nM | – | – | 800 nM | 40 nM | 18 nM
COc1cc2c(=O)n(CCN(C)C)c3c(cnc4cccc([N+](=O)[O-])c43)c2cc1OC [Compound 3d, 8,9-Dimethoxy-4-nitro-5-[2-(N,N-dimethylamino)ethyl]-5H-dibenzo[c,h][1,6]-naphthyridin-6-one] | 194 to 195 °C | >300 | 7000 nM | – | – | 11500 nM | 6000 nM | 5500 nM
COc1cc2c(=O)n(CCN(C)C)c3c4ccccc4ncc3c2cc1OC [Compound 5, 8,9-Dimethoxy-5-[2-(N,N-dimethylamino)ethyl]-5H-dibenzo[c,h]1,6-naphthyridin-6-one, reference compound] | – | 10 | 300 nM | – | – | 1650 nM | 70 nM | 100 nM
COc1cc2c(=O)n(CCN(C)C)c3c4ccccc4nnc3c2cc1OC [Compound 12b, 11-(2-Dimethylaminoethyl)-2,3-dimethoxy-11H-5,6,11-triazachrysen-12-one, reference compound] | – | – | – | – | – | 1500 nM | – | 18 nM
CC[C@@]1(O)C(=O)OCc2c1cc1n(c2=O)Cc2cc3c(CN(C)C)c(O)ccc3nc2-1 [Topotecan, reference compound] | – | 1 | > 10000 nM | – | – | > 50000 nM | 35 nM | –
COc1cc([C@@H]2c3cc4c(cc3[C@@H](O[C@@H]3O[C@@H]5CO[C@@H](c6cccs6)O[C@H]5[C@H](O)[C@H]3O)[C@H]3COC(=O)[C@H]23)OCO4)cc(OC)c1O [VM-26, teniposide, reference compound] | – | – | – | – | – | 280 nM | – | –

More lines, main results first:

melting point | TOP1-mediated DNA Cleavage (REC, relative effective concentration) (human topoisomerase I) | SMILES | IC50 (P388/CPT45) | IC50 (P388; 4 days of continuous drug exposure) | IC50 (RPMI 8402; 4 days of continuous drug exposure, MTT) | IC50 (CPT-K5) | IC50 (P388) | IC50 (RPMI 8402)
226 to 229 °C | 100 | COc1cc2c(=O)n(CCN(C)C)c3c4cccc(N)c4ncc3c2cc1OC [Compound 4a, 1-Amino-8,9-dimethoxy-5-[2-(N,N-dimethylamino)ethyl]-5H-dibenzo[c,h][1,6]naphthyridin-6-one] | 210 nM | – | – | 2000 nM | 350 nM | 650 nM
208 to 210 °C | 12 | COc1cc2c(=O)n(CCN(C)C)c3c4ccc(N)cc4ncc3c2cc1OC [Compound 4b, 2-Amino-8,9-dimethoxy-5-[2-(N,N-dimethylamino)ethyl]-5H-dibenzo[c,h][1,6]naphthyridin-6-one] | 230 nM | – | – | 2100 nM | 60 nM | 100 nM
213 to 215 °C | 6 | COc1cc2c(=O)n(CCN(C)C)c3c4cc(N)ccc4ncc3c2cc1OC [Compound 4c, 3-Amino-8,9-dimethoxy-5-[2-(N,N-dimethylamino)ethyl]-5H-dibenzo[c,h][1,6]naphthyridin-6-one] | 330 nM | – | – | 1350 nM | 20 nM | 40 nM
239 to 241 °C | >300 | COc1cc2c(=O)n(CCN(C)C)c3c(cnc4cccc(N)c43)c2cc1OC [Compound 4d, 4-Amino-8,9-dimethoxy-5-[2-(N,N-dimethylamino)ethyl]-5H-dibenzo[c,h][1,6]-naphthyridin-6-one] | 3500 nM | – | – | 8000 nM | 3000 nM | 4000 nM
262 to 264 °C (dec.) | – | COc1cc2c(=O)n(CCN(C)C)c3c4cc([N+](=O)[O-])ccc4nnc3c2cc1OC [Compound 12a, 11-(2-Dimethylaminoethyl)-2,3-dimethoxy-9-nitro-11H-5,6,11-triazachrysen-12-one] | – | – | – | 3300 nM | – | 3 nM
